Results reported in BindingDB's records for doi:10.7270/Q2319T8T (The Scripps Research Institute Molecular Screening Center, 2007).
pIC50: −log10 of the molar value. Structures can show the parent of a compound that is named as a salt.

Biological target: Steroidogenic factor 1 (Homo sapiens, UniProt Q13285)
Assay: SF-1 inhibitor potency, dose response, cell-based, CHO-K1, Gal4-SF-1 LBD, luciferase luminescence (AID 600)
[1] = inactive by the depositor's call

Steroidogenic factor 1, sequence (Q13285 whole entry, the tested form may be a part): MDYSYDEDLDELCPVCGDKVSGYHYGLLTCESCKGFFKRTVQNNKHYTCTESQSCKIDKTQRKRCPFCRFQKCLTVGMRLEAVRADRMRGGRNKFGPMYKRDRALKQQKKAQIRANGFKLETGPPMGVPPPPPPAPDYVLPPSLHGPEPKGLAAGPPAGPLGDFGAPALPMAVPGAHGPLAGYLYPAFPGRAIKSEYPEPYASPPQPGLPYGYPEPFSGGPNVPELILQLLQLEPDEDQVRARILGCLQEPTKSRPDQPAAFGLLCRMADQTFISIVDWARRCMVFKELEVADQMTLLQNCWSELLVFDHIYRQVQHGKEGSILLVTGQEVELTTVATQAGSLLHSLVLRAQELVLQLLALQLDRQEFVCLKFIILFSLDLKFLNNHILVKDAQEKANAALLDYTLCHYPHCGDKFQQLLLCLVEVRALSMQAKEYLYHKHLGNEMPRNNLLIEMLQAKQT

Work on `CCOC(=O)C(C)Oc1cccc2c(=O)n(CC(=O)Nc3ccc4c(c3)OCCO4)ccc12` (stereo unspecified) yielded a pIC50 of 6.08.
In the case of `CCC(NC(=O)Nc1nnc(C(F)(F)F)s1)(C(F)(F)F)C(F)(F)F`, the pIC50 was less than 4.96.
Work on `O=S1(=O)C=C(Sc2nnc(-c3ccccc3)o2)c2ccccc21` yielded a pIC50 of 5.41.
Work on `CCc1ccc(-c2nnn(CCC(=O)OC)n2)cc1` yielded a pIC50 of 5.17.
For `Cn1ncnc2c(=O)n(C)c(=O)nc1-2`, the pIC50 was 6.12.
In the case of `O=C1c2ccccc2C(=O)C1c1ccc2ccccc2n1`, the pIC50 was 5.17.
Compound `CCN(CC)c1ccc(-c2nn3c(-c4ccccc4OC)nnc3s2)cc1` has a pIC50 of 5.30.
For `Cc1ccc2[nH]c3c(N4CCN(Cc5ccc6c(c5)OCO6)CC4)ncnc3c2c1`, the pIC50 was 5.14.
Compound `Fc1ccc2[nH]c3c(N4CCN(c5ccccc5)CC4)ncnc3c2c1` has a pIC50 of 5.98.
Work on `CC(C)OCCCNc1ncnc2c1[nH]c1ccc(F)cc12` yielded a pIC50 [1] of 4.68.
For `CN1/C(=C/C(=O)c2nc(S(C)(=O)=O)ncc2Cl)C(C)(C)c2ccccc21`, the pIC50 [1] was 4.81.
For `CCCCOC(=O)c1[nH]c2c(c1C)C(=O)CC(c1cc(OC)c(OC)c(OC)c1)C2` (stereo unspecified), the pIC50 [1] was 4.77.
For `CC[C@H]1CN2CCc3cc(OC)c(OC)cc3[C@@H]2C[C@@H]1C[C@H]1NCCc2cc(OC)c(OC)cc21`, the pIC50 was 6.69.
`[H][C@@]12C[N@@](CCc3c([nH]c4ccccc34)[C@@](C(=O)OC)(c3cc4c(cc3OC)N(C=O)[C@]3([H])[C@]45CC[N@@]4CC=C[C@@](CC)([C@@H](OC(C)=O)[C@]3(O)C(=O)OC)[C@]45[H])C1)C[C@](O)(CC)C2` showed a pIC50 of 5.45.
Compound `Clc1ccc(-c2nnc(NC3=NCCCCC3)o2)cc1` has a pIC50 of less than 5.44.
`COc1cc2nc(S)n3nc(CCn4nc(C)cc4C)nc3c2cc1OC` gave a pIC50 of 5.30.
`O=C(CC=Nc1cccc(F)c1)c1ccc2c(c1)OCO2` showed a pIC50 of 5.33.
`Nc1nsc2ccccc12` [1,2-benzothiazol-3-amine] was tested, and the pIC50 was 5.17.
`Cc1ccc(C(C)C)c(OCCNc2nc3c(c(=O)n(C)c(=O)n3C)n2C)c1` [1,3,7-trimethyl-8-[2-(5-methyl-2-propan-2-yl-phenoxy)ethylamino]purine-2,6-dione] gave a pIC50 of less than 4.00.
Compound `Cc1ccc(CNc2nc3ccccc3s2)s1` [1,3-benzothiazol-2-yl-[(5-methyl-2-thienyl)methyl]amine] has a pIC50 of less than 4.96.
For `COc1cc2c(C#N)c(N3CCN(c4ccccc4OC)CC3)nc(N)c2c(N)n1` [1,8-diamino-6-methoxy-3-(4-(2-methoxyphenyl)piperazin-1-yl)-2,7-naphthyridine-4-carbonitrile], the pIC50 [1] was 4.53.
`CC(NC(=O)Nc1nnc(C(F)(F)F)s1)(C(F)(F)F)C(F)(F)F` [1-(1,1,1,3,3,3-hexafluoro-2-methylpropan-2-yl)-3-[5-(trifluoromethyl)-1,3,4-thiadiazol-2-yl]urea] gave a pIC50 of 5.20.
`O=C(CSc1nnc(COc2cccc3cccnc23)o1)N1CCc2ccccc21` [1-(2,3-Dihydro-indol-1-yl)-2-[5-(quinolin-8-yloxymethyl)-[1,3,4]oxadiazol-2-ylsulfanyl]-ethanone] was tested, and the pIC50 was 5.36.
Work on `Cc1ccccc1S(=O)(=O)Cc1ccc(C(=O)N2CCN(c3cccc(C)c3C)CC2)o1` [1-(2,3-dimethylphenyl)-4-(5-{[(2-methylphenyl)sulfonyl]methyl}-2-furoyl)piperazine] yielded a pIC50 [1] of 4.87.
Work on `Cc1occc1C(=O)N1CCN(c2ccc(Cl)c(Cl)c2)CC1` [1-(3,4-dichlorophenyl)-4-(2-methyl-3-furoyl)piperazine] yielded a pIC50 [1] of 4.53.
In the case of `CCOc1ccccc1C(=O)N1CCN(c2cccc(Cl)c2)CC1` [1-(3-chlorophenyl)-4-(2-ethoxybenzoyl)piperazine], the pIC50 was less than 5.91.
`CCCS(=O)(=O)c1nnnn1-c1cccc(OC)c1` [1-(3-methoxyphenyl)-5-(propylsulfonyl)-1H-tetrazole] gave a pIC50 of 5.30.
`Cc1ccc(-c2nsc3c(N4CCC(C(N)=O)CC4)ncnc23)cc1` [1-(3-p-Tolyl-isothiazolo[4,5-d]pyrimidin-7-yl)-piperidine-4-carboxylic acid amide] gave a pIC50 of 6.66.
In the case of `CC(C)NCC(O)Cn1c2c(c3ccccc31)CCc1c-2cnn1-c1ccccc1` (stereo unspecified) [1-(3-phenyl-4,5-dihydropyrazolo[4,3-a]carbazol-10-yl)-3-(propan-2-ylamino)-2-propanol], the pIC50 was 5.23.
With `Clc1ccc(-n2ncc3c(N4CCCC4)ncnc32)cc1` [1-(4-chlorophenyl)-4-(1-pyrrolidinyl)pyrazolo[3,4-d]pyrimidine] the pIC50 was 5.50.
With `CC1CCCN(c2ncnc3c2cnn3-c2ccc(Cl)cc2)C1` (stereo unspecified) [1-(4-chlorophenyl)-4-(3-methyl-1-piperidinyl)pyrazolo[3,4-d]pyrimidine] the pIC50 was greater than 8.30.
With `Cc1cccc(NC(=O)Nc2ccc(C#N)cc2)n1` [1-(4-cyanophenyl)-3-(6-methyl-2-pyridinyl)urea] the pIC50 was less than 5.91.
Work on `COc1ccc(O)c(C(=O)CC(=O)c2ccc(F)cc2)c1` [1-(4-fluorophenyl)-3-(2-hydroxy-5-methoxy-phenyl)propane-1,3-dione] yielded a pIC50 of less than 4.96.
`COc1ccc(-n2ncc3c(N4CCCCC4)ncnc32)cc1` [1-(4-methoxyphenyl)-4-(1-piperidinyl)pyrazolo[3,4-d]pyrimidine] was tested, and the pIC50 was 5.75.
Compound `COc1cc(CSc2nnnn2-c2ccc(C)cc2)cc(OC)c1OC` [1-(4-methylphenyl)-5-[(3,4,5-trimethoxybenzyl)thio]-1H-tetrazole] has a pIC50 [1] of 4.77.
With `CCOC(=O)C1CCN(Cc2ccc(O)c3ncccc23)CC1` [1-(8-Hydroxy-quinolin-5-ylmethyl)-piperidine-4-carboxylic acid ethyl ester] the pIC50 was 5.01.
Work on `CCn1nc(-c2ccccc2)nc2c(=O)n(C)c(=O)nc1-2` [1-Ethyl-6-methyl-3-phenyl-1H-pyrimido[5,4-e][1,2,4]triazine-5,7-dione] yielded a pIC50 of 5.33.
`COCCn1c(C)cc(C(=O)CSc2nnc(C)s2)c1C` [1-[1-(2-methoxyethyl)-2,5-dimethyl-1H-pyrrol-3-yl]-2-[(5-methyl-1,3,4-thiadiazol-2-yl)thio]ethanone] showed a pIC50 of 5.26.
Work on `CCOC(=O)C1CCN(c2ncnc3c2cnn3-c2ccc(Cl)cc2)CC1` [1-[1-(4-chlorophenyl)-4-pyrazolo[3,4-d]pyrimidinyl]-4-piperidinecarboxylic acid ethyl ester] yielded a pIC50 of 5.47.
In the case of `Cc1csc(SCC(=O)c2cc(C)n(Cc3cccs3)c2C)n1` [1-[2,5-dimethyl-1-(2-thenyl)pyrrol-3-yl]-2-[(4-methylthiazol-2-yl)thio]ethanone], the pIC50 was less than 5.44.
`Cc1cc(-n2c(C)cc(C(=O)CSc3ncnc4ccccc34)c2C)no1` [1-[2,5-dimethyl-1-(5-methyl-1,2-oxazol-3-yl)pyrrol-3-yl]-2-quinazolin-4-ylsulfanyl-ethanone] was tested, and the pIC50 was 5.04.
In the case of `COc1ccc(NC(=O)NCCCN2CCN(c3cc(C)ccc3C)CC2)cc1` [1-[3-[4-(2,5-dimethylphenyl)-1-piperazinyl]propyl]-3-(4-methoxyphenyl)urea], the pIC50 [1] was 4.61.
Work on `CC(=O)c1ccc(N2CCN(c3ccc(C(F)(F)F)cn3)CC2)cc1` [1-[4-[4-[5-(trifluoromethyl)-2-pyridinyl]-1-piperazinyl]phenyl]ethanone] yielded a pIC50 of less than 4.48.
Compound `Cc1ccc(-c2csc3ncnc(Sc4nnc(CN5CCCCCC5=O)o4)c23)cc1` [1-[[5-[5-(4-methylphenyl)thieno[2,3-d]pyrimidin-4-yl]sulfanyl-1,3,4-oxadiazol-2-yl]methyl]azepan-2-one] has a pIC50 of 5.24.
`Nc1nnnn1N=C/C(Br)=C/c1ccccc1` [1-[[(Z)-2-bromanyl-3-phenyl-prop-2-enylidene]amino]-1,2,3,4-tetrazol-5-amine] was tested, and the pIC50 was 5.50.
`CCCCn1c2c(c(=O)n(C)c1=O)C(c1ccc(OC)cc1)N1CCCCCC1=N2` (stereo unspecified) [1-butyl-5-(4-methoxyphenyl)-3-methyl-5,7,8,9,10,11-hexahydropyrimido[3,4]pyrimid[4,5-a]azepine-2,4-quinone] was tested, and the pIC50 was 5.10.
`O=C(Nc1ccccc1NC(=O)NC1CCCCC1)NC1CCCCC1` [1-cyclohexyl-3-[2-(cyclohexylcarbamoylamino)phenyl]urea] showed a pIC50 of 5.79.
For `C=CS(=O)(=O)c1ccc(Oc2ccc(S(=O)(=O)C=C)cc2)cc1` [1-ethenylsulfonyl-4-(4-ethenylsulfonylphenoxy)benzene], the pIC50 was 5.38.
Work on `CCn1nc(-c2cccs2)nc2c(=O)n(C)c(=O)nc1-2` [1-ethyl-6-methyl-3-thiophen-2-yl-pyrimido[5,4-e][1,2,4]triazine-5,7-dione] yielded a pIC50 of 5.58.
Compound `[O-][N+]1=c2ccc(Nc3ccccc3)cc2=NC12CCCCC2` [1-oxido-N-phenyl-5-spiro[benzimidazol-1-ium-2,1'-cyclohexane]amine] has a pIC50 of 5.19.
`c1ccc(-n2ncc3c(N4CCCCC4)ncnc32)cc1` [1-phenyl-4-(1-piperidinyl)pyrazolo[3,4-d]pyrimidine] showed a pIC50 of 5.23.
Compound `Cc1ccc(-c2cn3nc(C)c(C)nc3n2)cc1` [2,3-dimethyl-6-(4-methylphenyl)imidazo[1,2-b][1,2,4]triazine] has a pIC50 [1] of 4.70.
`Cc1nc2nc(-c3ccccc3)cn2nc1C` [2,3-dimethyl-6-phenyl-imidazo[1,2-b][1,2,4]triazine] was tested, and the pIC50 was less than 4.96.
With `COc1ccc(C(=O)Nc2ccc(C)cn2)c(OC)c1` [2,4-dimethoxy-N-(5-methylpyridin-2-yl)benzamide] the pIC50 was 5.47.
`COc1cc(NS(=O)(=O)c2ccc(C)cc2C)cc(OC)c1OC` [2,4-dimethyl-N-(3,4,5-trimethoxyphenyl)benzenesulfonamide] showed a pIC50 of less than 4.96.
Compound `O=C(c1ccccc1)C(CCC(CN1CCOCC1)C(=O)c1ccccc1)CN1CCOCC1` (stereo unspecified) [2,5-bis(4-morpholinylmethyl)-1,6-diphenylhexane-1,6-dione;hydrochloride] has a pIC50 of 4.97.
With `Cc1oc2cc3c(C(=O)OCCN(C)C)c(C)oc3cc2c1C(=O)OCCN(C)C` [2,6-Dimethyl-benzo[1,2-b;4,5-b']difuran-3,7-dicarboxylic acid bis-(2-dimethylamino-ethyl) ester] the pIC50 was 6.09.
`c1ccc(-c2cccc(-c3ccccn3)n2)nc1` [2,6-bis(2-pyridinyl)pyridine] gave a pIC50 [1] of 4.99.
With `c1ccc(-c2cn3nc(-c4ccccc4)sc3n2)cc1` [2,6-diphenylimidazo[2,1-b][1,3,4]thiadiazole] the pIC50 was 5.70.
Work on `O=NC1c2cc(S(=O)(=O)N3CCCCC3)ccc2-c2ccc(S(=O)(=O)N3CCCCC3)cc21` [2,7-Bis-(piperidine-1-sulfonyl)-fluoren-9-one oxime] yielded a pIC50 of 5.82.
`COc1cc(C2c3ccc(N)cc3OC(=N)C2C#N)cc(OC)c1OC` (stereo unspecified) [2,7-bis(azanyl)-4-(3,4,5-trimethoxyphenyl)-4H-chromene-3-carbonitrile] showed a pIC50 of 5.10.
